# According to patent publication US10047083B2, “Dihydropyrimidinoisoquinolinones and pharmaceutical compositions thereof for the treatment of inflammatory disorders” (GALAPAGOS NV, priority 2011, dated 2018):
# pIC50: −log10 of the molar value.
# Target: T1, GPR84 (Homo sapiens, UniProt Q9NQS5)
# T1 construct: expressed in transfected cells; membranes used
# Assay: GTPγS binding assay (GPR84)
# Format: biochemical
# Details: membranes from stable cell line over expressing GPR84; 3,3′ di indolylmethane at EC80
# Method: 1.1. Cell Based Assay: GTp-γS Binding Assay.
# The following assay can be used for determination of GPR84 activation.
# The assay is performed in a 96 well plate where the following reagents are added. […] In a last step, 30 μL of a mixture consisting of membranes-GTPγS-SpA beads is added [mixture consists of 20 μg/well membranes derived from stable cell line over expressing GPR84 (membranes are pre-incubated with 0.1 μM GDP for 15 min at 4° C.), 0.1 nM [^35S]GTPγS (Perkin Elmer, NEG030) and 0.5 mg/well PVT-WGA SpA beads (Perkin Elmer, RPNQ0001)]. All components are diluted in assay buffer containing 20 mM HEPES pH 7.4; 5 mM MgCl2; 250 mM NaCl; 0.05% BSA; 75 ug/mL saponin. Reactions are incubated for 90 min at room temperature followed by centrifugation at 2000 rpm during 15 min. Plates are read on a Topcount reader (Perkin Elmer) immediately after centrifugation (readout time, 1 min/well).
# T1 sequence (Q9NQS5 whole entry): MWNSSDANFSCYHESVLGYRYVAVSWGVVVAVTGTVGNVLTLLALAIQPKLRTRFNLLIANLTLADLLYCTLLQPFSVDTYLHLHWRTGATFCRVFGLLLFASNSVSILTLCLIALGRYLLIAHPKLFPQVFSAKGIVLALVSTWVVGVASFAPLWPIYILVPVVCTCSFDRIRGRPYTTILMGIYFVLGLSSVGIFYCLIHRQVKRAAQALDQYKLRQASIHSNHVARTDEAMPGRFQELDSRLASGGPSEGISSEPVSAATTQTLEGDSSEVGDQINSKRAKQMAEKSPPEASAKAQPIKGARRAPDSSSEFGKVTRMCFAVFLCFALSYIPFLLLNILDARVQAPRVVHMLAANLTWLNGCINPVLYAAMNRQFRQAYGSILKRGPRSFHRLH
row,pIC50,SMILES
1,6.30 to 7.00,"C=CCOc1ccc2c(c1)CCn1c-2cc(OCC2COCCO2)nc1=O (stereo not shown) [Compound 1, 9-allyloxy-2-(-1-[1,4]dioxan-2-ylmethoxy)-6,7-dihydro-pyrimido[6,1-a]isoquinolin-4-one]"
2,6.00 to 6.30,"O=c1nc(OCC2COCCO2)cc2n1CCc1cc(-c3ccncc3)ccc1-2 (stereo not shown) [Compound 3, 2-([1,4]dioxan-2-ylmethoxy)-9-pyridin-4-yl-6,7-dihydro-pyrimido[6,1-a]isoquinolin-4-one]"
3,6.00 to 6.30,"N#Cc1cccc(-c2ccc3c(c2)CCn2c-3cc(OCC3COCCO3)nc2=O)c1 (stereo not shown) [Compound 5, 3-[2-([1,4]dioxan-2-ylmethoxy)-4-oxo-6,7-dihydro-4H-pyrimido[6,1-a]isoquinolin-9-yl]-benzonitrile]"
4,6.30 to 7.00,"N#Cc1ccc(-c2ccc3c(c2)CCn2c-3cc(OCC3COCCO3)nc2=O)cc1 (stereo not shown) [Compound 6, 4-[2-([1,4]dioxan-2-ylmethoxy)-4-oxo-6,7-dihydro-4H-pyrimido[6,1-a]isoquinolin-9-yl]-benzonitrile]"
5,6.00 to 6.30,"NC(=O)c1cc(-c2ccc3c(c2)CCn2c-3cc(OCC3COCCO3)nc2=O)ccc1F (stereo not shown) [Compound 28, 5-[2-([1,4]dioxan-2-ylmethoxy)-4-oxo-6,7-dihydro-4H-pyrimido[6,1-a]isoquinolin-9-yl]-2-fluoro-benzamide]"
6,6.30 to 7.00,"COc1cccc(-c2ccc3c(c2)CCn2c-3cc(OCC3COCCO3)nc2=O)c1 (stereo not shown) [Compound 43, 2-([1,4]dioxan-2-ylmethoxy)-9-(3-methoxy-phenyl)-6,7-dihydro-pyrimido[6,1-a]isoquinolin-4-one]"
7,6.00 to 6.30,"O=c1nc(OCC2COCCO2)cc2n1CCc1cc(C#CCCO)ccc1-2 (stereo not shown) [Compound 45, 2-([1,4]dioxan-2-ylmethoxy)-9-(4-hydroxy-but-1-ynyl)-6,7-dihydro-pyrimido[6,1-a]isoquinolin-4-one]"
8,6.30 to 7.00,"NC(=O)c1ccc(F)c(-c2ccc3c(c2)CCn2c-3cc(OCC3COCCO3)nc2=O)c1 (stereo not shown) [Compound 50, 3-[2-([1,4]dioxan-2-ylmethoxy)-4-oxo-6,7-dihydro-4H-pyrimido[6,1-a]isoquinolin-9-yl]-4-fluoro-benzamide]"
9,6.30 to 7.00,"NC(=O)c1cc(F)cc(-c2ccc3c(c2)CCn2c-3cc(OCC3COCCO3)nc2=O)c1 (stereo not shown) [Compound 51, 3-[2-([1,4]dioxan-2-ylmethoxy)-4-oxo-6,7-dihydro-4H-pyrimido[6,1-a]isoquinolin-9-yl]-5-fluoro-benzamide]"
10,6.30 to 7.00,"O=c1nc(OCC2COCCO2)cc2n1CCc1cc(C#Cc3ccncc3)ccc1-2 (stereo not shown) [Compound 53, 2-([1,4]dioxan-2-ylmethoxy)-9-pyridin-4-ylethynyl-6,7-dihydro-pyrimido[6,1-a]isoquinolin-4-one]"
11,6.30 to 7.00,"Cc1cc(COc2ccc3c(c2)CCn2c-3cc(OCC3COCCO3)nc2=O)on1 (stereo not shown) [Compound 54, 2-([1,4]dioxan-2-ylmethoxy)-9-(3-methyl-isoxazol-5-ylmethoxy)-6,7-dihydro-pyrimido[6,1-a]isoquinolin-4-one]"
12,< 6.00,"CC(C)(O)C#Cc1ccc2c(c1)CCn1c-2cc(OCC2COCCO2)nc1=O (stereo not shown) [Compound 55, 2-([1,4]dioxan-2-ylmethoxy)-9-(3-hydroxy-3-methyl-but-1-ynyl)-6,7-dihydro-pyrimido[6,6,1-a]isoquinolin-4-one]"
13,6.30 to 7.00,"O=c1nc(OCC2COCCO2)cc2n1CCc1cc(C3=CCOCC3)ccc1-2 (stereo not shown) [Compound 58, 9-(3,6-dihydro-2H-pyran-4-yl)-2-([1,4]dioxan-2-ylmethoxy)-6,7-dihydro-pyrimido[6,1-a]isoquinolin-4-one]"
14,6.00 to 6.30,"N#Cc1ccc(-c2ccc3c(c2)CCn2c-3cc(OCC3COCCO3)nc2=O)cn1 (stereo not shown) [Compound 59, 5-[2-([1,4]dioxan-2-ylmethoxy)-4-oxo-6,7-dihydro-4H-pyrimido[6,1-a]isoquinolin-9-yl]-pyridine-2-carbonitrile]"
15,7.00 to 11.00,"CCOc1ccc(-c2ccc3c(c2)CCn2c-3cc(OCC3COCCO3)nc2=O)cn1 (stereo not shown) [Compound 61, 2-([1,4]dioxan-2-ylmethoxy)-9-(6-ethoxy-pyridin-3-yl)-6,7-dihydro-pyrimido[6,1-a]isoquinolin-4-one]"
16,6.30 to 7.00,"COc1nccc(-c2ccc3c(c2)CCn2c-3cc(OCC3COCCO3)nc2=O)c1Cl (stereo not shown) [Compound 64, 9-(3-chloro-2-methoxy-pyridin-4-yl)-2-([1,4]dioxan-2-ylmethoxy)-6,7-dihydro-pyrimido[6,1-a]isoquinolin-4-one]"
17,6.00 to 6.30,"Cc1cc(-c2ccc3c(c2)CCn2c-3cc(OCC3COCCO3)nc2=O)ccn1 (stereo not shown) [Compound 65, 2-([1,4]dioxan-2-ylmethoxy)-9-(2-methyl-pyridin-4-yl)-6,7-dihydro-pyrimido[6,1-a]isoquinolin-4-one]"

row,pIC50,SMILES
1,6.30 to 7.00,"N#Cc1ccncc1-c1ccc2c(c1)CCn1c-2cc(OCC2COCCO2)nc1=O (stereo not shown) [Compound 66, 3-[2-([1,4]dioxan-2-ylmethoxy)-4-oxo-6,7-dihydro-4H-pyrimido[6,1-a]isoquinolin-9-yl]-isonicotinonitrile]"
2,7.00 to 11.00,"COc1ccc(OC)c(-c2ccc3c(c2)CCn2c-3cc(OCC3COCCO3)nc2=O)c1 (stereo not shown) [Compound 67, 9-(2,5-dimethoxy-phenyl)-2-([1,4]dioxan-2-ylmethoxy)-6,7-dihydro-pyrimido[6,1-a]isoquinolin-4-one]"
3,7.00 to 11.00,"COc1ccc(-c2ccc3c(c2)CCn2c-3cc(OCC3COCCO3)nc2=O)c(OC)n1 (stereo not shown) [Compound 70, 9-(2,6-dimethoxy-pyridin-3-yl)-2-([1,4]dioxan-2-ylmethoxy)-6,7-dihydro-pyrimido[6,1-a]isoquinolin-4-one]"
4,7.00 to 11.00,"O=c1nc(OCC2COCCO2)cc2n1CCc1cc(-c3ccc(N4CCCC4)nc3)ccc1-2 (stereo not shown) [Compound 74, 2-([1,4]dioxan-2-ylmethoxy)-9-(6-pyrrolidin-1-yl-pyridin-3-yl)-6,7-dihydro-pyrimido[6,1-a]isoquinolin-4-one]"
5,7.00 to 11.00,"O=c1nc(OCC2COCCO2)cc2n1CCc1cc(OCc3ncc(-c4ccccc4)o3)ccc1-2 (stereo not shown) [Compound 75, 2-([1,4]dioxan-2-ylmethoxy)-9-(5-phenyl-oxazol-2-ylmethoxy)-6,7-dihydro-pyrimido[6,1-a]isoquinolin-4-one]"
6,7.00 to 11.00,"CC(C)(C)c1cnc(COc2ccc3c(c2)CCn2c-3cc(OCC3COCCO3)nc2=O)o1 (stereo not shown) [Compound 76, 9-(5-tert-butyl-oxazol-2-ylmethoxy)-2-([1,4]dioxan-2-ylmethoxy)-6,7-dihydro-pyrimido[6,1-a]isoquinolin-4-one]"
7,7.00 to 11.00,"CCc1nc(COc2ccc3c(c2)CCn2c-3cc(OCC3COCCO3)nc2=O)no1 (stereo not shown) [Compound 78, 2-([1,4]dioxan-2-ylmethoxy)-9-(5-ethyl-[1,2,4]oxadiazol-3-ylmethoxy)-6,7-dihydro-pyrimido[6,1-a]isoquinolin-4-one]"
8,6.30 to 7.00,"Cc1nc(COc2ccc3c(c2)CCn2c-3cc(OCC3COCCO3)nc2=O)no1 (stereo not shown) [Compound 79, 2-([1,4]dioxan-2-ylmethoxy)-9-(5-methyl-[1,2,4]oxadiazol-3-ylmethoxy)-6,7-dihydro-pyrimido[6,1-a]isoquinolin-4-one]"
9,7.00 to 11.00,"O=c1nc(OCC2COCCO2)cc2n1CCc1cc(C#CC3CCCC3)ccc1-2 (stereo not shown) [Compound 81, 9-cyclopentylethynyl-2-([1,4]dioxan-2-ylmethoxy)-6,7-dihydro-pyrimido[6,1-a]isoquinolin-4-one]"
10,7.00 to 11.00,"O=c1nc(OCC2COCCO2)cc2n1CCc1cc(C#CC3CCCCC3)ccc1-2 (stereo not shown) [Compound 82, 9-cyclohexylethynyl-2-([1,4]dioxan-2-ylmethoxy)-6,7-dihydro-pyrimido[6,1-a]isoquinolin-4-one]"
11,7.00 to 11.00,"CCCCC#Cc1ccc2c(c1)CCn1c-2cc(OCC2COCCO2)nc1=O (stereo not shown) [Compound 84, 2-([1,4]dioxan-2-ylmethoxy)-9-hex-1-ynyl-6,7-dihydro-pyrimido[6,1-a]isoquinolin-4-one]"
12,6.30 to 7.00,"CC(O)C#Cc1ccc2c(c1)CCn1c-2cc(OCC2COCCO2)nc1=O (stereo not shown) [Compound 87, 2-([1,4]dioxan-2-ylmethoxy)-9-(3-hydroxy-but-1-ynyl)-6,7-dihydro-pyrimido[6,1-a]isoquinolin-4-one]"
13,6.30 to 7.00,"CCC(O)(C#Cc1ccc2c(c1)CCn1c-2cc(OCC2COCCO2)nc1=O)CC (stereo not shown) [Compound 91, 2-([1,4]dioxan-2-ylmethoxy)-9-(3-ethyl-3-hydroxy-pent-1-ynyl)-6,7-dihydro-pyrimido[6,1-a]isoquinolin-4-one]"
14,7.00 to 11.00,"O=c1nc(OCC2COCCO2)cc2n1CCc1cc(C#CCNCc3ccccc3)ccc1-2 (stereo not shown) [Compound 93, 9-(3-benzylamino-prop-1-ynyl)-2-([1,4]dioxan-2-ylmethoxy)-6,7-dihydro-pyrimido[6,1-a]isoquinolin-4-one]"
15,6.00 to 6.30,"CCn1cc(-c2ccc3c(c2)CCn2c-3cc(OCC3COCCO3)nc2=O)cn1 (stereo not shown) [Compound 95, 2-([1,4]dioxan-2-ylmethoxy)-9-(1-ethyl-1H-pyrazol-4-yl)-6,7-dihydro-pyrimido[6,1-a]isoquinolin-4-one]"
16,6.30 to 7.00,"CC(C)CCn1cc(-c2ccc3c(c2)CCn2c-3cc(OCC3COCCO3)nc2=O)cn1 (stereo not shown) [Compound 96, 2-([1,4]dioxan-2-ylmethoxy)-9-[1-(3-methyl-butyl)-1H-pyrazol-4-yl]-6,7-dihydro-pyrimido[6,1-a]isoquinolin-4-one]"
17,6.30 to 7.00,"Cc1ccc(-c2ccc3c(c2)CCn2c-3cc(OCC3COCCO3)nc2=O)o1 (stereo not shown) [Compound 97, 2-([1,4]dioxan-2-ylmethoxy)-9-(5-methyl-furan-2-yl)-6,7-dihydro-pyrimido[6,1-a]isoquinolin-4-one]"
